The subject of experiment [1] is 26-10 BABS (sFv), single chain biosynthetic antibody binding site VH-(Gly4-Ser)3-VL mimicking murine anti-digoxin monoclonal 26-10. The experiment is described as follows: Specificity determination by radioimmunoassay (inhibition of 125I-digoxin binding), 26-10 BABS. As to the method: After the plates were washed and blocked with 1% horse serum in PBSA, solutions (50 μl) containing 26-10 Fab or the BABS in either PBSA or 0.01M sodium acetate at pH 5.5 were added to the wells and incubated 2-3 hrs at room temperature.

Experiment [2] addresses anti-digoxin 26-10 Fab (murine monoclonal 26-10). The experiment is described as follows: Affinity determination by equilibrium binding of 3H-digoxin (immunoprecipitation), 26-10 Fab. How it is done:
(§1) Association constants were measured by equilibrium binding studies. […] After 2-3 hrs of incubation at room temperature, the protein was precipitated by the addition of 100 μl goat antiserum to murine Fab fragment (ICN Immuno-Biologicals), 50 μl of the IgG fraction of rabbit anti-goat IgG (ICN ImmunoBiologicals), and 50 μl of a 10% suspension of protein A-Sepharose (Sigma). Following 2 hrs at 4° C., bound and free antigen were separated by vacuum filtration on glass fiber filters (Vacuum Filtration Manifold, Millipore, Bedford, Mass.). Filter disks were then counted in 5 ml of […] scintillation fluid with a Model 1500 Tri-Carb Liquid Scintillation Analyzer (Packard, Sterling, Va.). The Scatchard analyses of the untransformed radioligand binding data using LIGAND, a non-linear curve fitting program based on mass action. Ko s were also calculated by Sips plots and binding isotherms shown in FIG. 13A for the BABS and 13B for the Fab. […] These binding data are also plotted in linear form as Sips plots (inset), having the same abscissa as the binding isotherm but with the ordinate representing log r/(n-r), defined below.

For experiment [3], the target named is 26-10 BABS, single chain biosynthetic antibody binding site VH-(Gly4-Ser)3-VL mimicking murine anti-digoxin monoclonal 26-10. The experiment can be described thus: Affinity determination by equilibrium binding of 3H-digoxin (immunoprecipitation), 26-10 BABS. How it is done:
as §1

Experiment [4] addresses IgG2a,k monoclonal antibody 26-10 (parent anti-digoxin antibody). Conditions: cited from earlier work.
The mark [5] stands for this setting: normalizing glycoside Digoxigenin.

This is an account of results in patent publication US5482858A, “Polypeptide linkers for production of biosynthetic proteins” (priority 1993, dated 1996).

With `CC(=O)OC1CCC2(C=O)C3CCC4(C)C(C5=CC(=O)OC5)CCC4(O)C3CCC2(O)C1` (stereo not shown) [Acetyl Strophanthidin], the “normalized concentration of inhibitor giving 50% inhibition of 125I-digoxin binding” value in experiment [1] (setting [5]) is on record as 0.8; in experiment [1] (normalizing glycoside Digoxin), 5.9.
For `C[C@]12CC[C@H](O)C[C@H]1CC[C@@H]1[C@@H]2CC[C@]2(C)[C@@H](C3=CC(=O)OC3)CC[C@]12O` [Digitoxigenin] the same measures were 0.4 and 2.6.
For `C[C@H]1O[C@@H](O[C@H]2[C@@H](O)C[C@H](O[C@H]3[C@@H](O)C[C@H](O[C@H]4CC[C@@]5(C)[C@H](CC[C@@H]6[C@@H]5CC[C@]5(C)[C@@H](C7=CC(=O)OC7)CC[C@]65O)C4)O[C@@H]3C)O[C@@H]2C)C[C@H](O)[C@@H]1O` [Digitoxin] the same measures were 0.3 and 2.0.
In the case of `C[C@]12CC[C@H](O)C[C@H]1CC[C@@H]1[C@@H]2C[C@@H](O)[C@]2(C)[C@@H](C3=CC(=O)OC3)CC[C@]12O` [Digoxigenin], the “normalized concentration of inhibitor giving 50% inhibition of 125I-digoxin binding” value in experiment [1] (setting [5]) worked out at 1.0; in experiment [1] (normalizing glycoside Digoxin), 7.3.
Consider `C[C@H]1O[C@@H](O[C@H]2[C@@H](O)C[C@H](O[C@H]3[C@@H](O)C[C@H](O[C@H]4CC[C@@]5(C)[C@H](CC[C@@H]6[C@@H]5C[C@@H](O)[C@]5(C)[C@@H](C7=CC(=O)OC7)CC[C@]65O)C4)O[C@@H]3C)O[C@@H]2C)C[C@H](O)[C@@H]1O` [Digoxin], for which the “Association Constant, Ko (Fab)” value in experiment [2] (Binding isotherm) is 3.3e+08 M⁻¹; in experiment [2] (Scatchard plot), “(1.9 ± 0.2) × 10^8 M^-1”; in experiment [2] (Sips plot), 1.8e+08 M⁻¹. Besides, the “Association Constant, Ko (BABS)” value is 5.2e+07 M⁻¹ in experiment [3] (Binding isotherm), “(3.2 ± 0.9) × 10^7 M^-1” in experiment [3] (Scatchard plot) and 2.6e+07 M⁻¹ in experiment [3] (Sips plot). Further, the equilibrium dissociation constant (Kd) in experiment [4] was 0.185 nM.
As to `C[C@H]1O[C@@H](O[C@H]2[C@@H](O)C[C@H](O[C@H]3[C@@H](O)C[C@H](O[C@H]4CC[C@@]5(C)[C@H](CC[C@@H]6[C@@H]5CC[C@]5(C)[C@@H](C7=CC(=O)OC7)[C@@H](O)C[C@]65O)C4)O[C@@H]3C)O[C@@H]2C)C[C@H](O)[C@@H]1O` [Gitoxin], the “normalized concentration of inhibitor giving 50% inhibition of 125I-digoxin binding” value stood at 8.5 in experiment [1] (setting [5]) and 62 in experiment [1] (normalizing glycoside Digoxin).
For the molecule `C[C@@H]1O[C@@H](O[C@H]2C[C@@H](O)[C@]3(CO)[C@H]4[C@H](O)C[C@]5(C)[C@@H](C6=CC(=O)OC6)CC[C@]5(O)[C@@H]4CC[C@]3(O)C2)[C@H](O)[C@H](O)[C@H]1O` [Ouabain], the entries for the “normalized concentration of inhibitor giving 50% inhibition of 125I-digoxin binding” value in experiment [1] (setting [5]) and in experiment [1] (normalizing glycoside Digoxin) were 21 and 150, respectively.
